Reference: patent EP1059033A1, “INDUSTRIAL ANTIBACTERIAL/ANTIFUNGAL AGENTS, ALGICIDES AND ANTI-BIOLOGICAL ADHESION AGENTS CONTAINING BENZYLAMINES” (Nissan Chemical Industries, Ltd., priority 1998, dated 1999)
Converted amounts (≈) assume the structure as drawn. Read-outs that look alike come from different tables or passages of the source.

Columns and labels:
Assay type in all cases: cell-based
[1] = system: freshwater green alga (Selenastrum capricornutum); test: Inhibition of propagation of freshwater green alga (Example 4); details: after 72 hours, cell number vs non-treated lot; for inhibition at 0.05 ppm: 50ppb, read-out: Propagation inhibiting rate(%) 50ppb; for inhibition at 0.5 ppm: 500ppb, read-out: Propagation inhibiting rate(%) 500ppb
Description: A predetermined amount of each of the compounds of the invention was dissolved in a culture medium containing 10^5 /ml of a freshwater green alga (Selenastrum capricornutum) at a logarithmic growth phase to prepare samples having a concentration of the compound of the invention in the medium of 500 ppb and 50ppb respectively. The samples were stationary cultured at 23±1 °C for […] under continuous illumination.
After 72 hours, the number of cells was measured using a hemacytometer to obtain propagation rate. The propagation inhibiting rate was calculated from comparison with the non-treated lot.

[2] = system: Cladosporium cladosporioides; test: Agar dilution MIC (Example 3); details: 168 h, agar plate, 27 °C, 7 days
Description: (§1) Series of diluted samples (20000, 10000, 5000, 2500, 1250, 625, 313, 156, 78, 39 mg/l) of the compounds of the invention were prepared using dimethylsulfoxide. A sensitive culture medium-N (Nissui Seiyaku Co.) was used for bacteria and a potato dextrose agar culture medium (Nissui Seiyaku Co.) was used for fungi. 0.5 ml of each sample was added to and mixed with 9.5 ml of the culture medium, poured into a Petri dish and solidified to obtain a plate. As a result, the concentration of the compounds of the invention in the agar culture medium were 1000, 500, 250, 125, 62.5, 31.3, 15.6, 7.8, 3.9, 2.0 mg/l. The bacterium inoculated were cultured in a bouillon for the assay of sensitivity (Nissui Seiyaku Co.) at 37 °C for 20 hours, and the fungi were cultured in the potato dextrose agar culture medium (Nissui Seiyaku Co.) for 10 days and then a 10^6 CFU/ml suspension was prepared from each of them. A test bacteria or fungi suspension was streaked on an agar plate containing the compound of the present invention with platinum wire loop, and the agar plate was cultured at 37±1 °C for 18 to 20 hours for bacteria or at 27 °C for 7 days for fungi. A concentration at which no growth was seen was taken as minimum inhibitory concentration (MIC). Symbols in the tables mean the followings; • A: Bacillus subtilis, • B: Trichophyton mentagrophytes, • C: Staphylococcus aureus, • D: Aspergillus niger, • E: Penicillium funiculosum, • F: Candida albicans, • G: Micrococcus luteus, • H: Corynebacterium aquaticum, • I: Chaetomium globosum, • J: Fusarium moniliforme, • K: Saccharomyces cerevisiae, • L: Rhodotorula rubra, • M: Cladosporium cladosporioides, • N: Alternaria alternata.

Chaetomium globosum = test: Agar dilution MIC (Example 3); details: 168 h, agar plate, 27 °C, 7 days
Description: as §1

Fusarium moniliforme = test: Agar dilution MIC (Example 3); details: Fusarium verticillioides, 168 h, agar plate, 27 °C, 7 days
Description: as §1

[3] = system: Trichophyton mentagrophytes; test: Agar dilution MIC (Example 3); details: 168 h, agar plate, 27 °C, 7 days
Description: as §1

Aspergillus niger = test: Agar dilution MIC (Example 3); details: 168 h, agar plate, 27 °C, 7 days
Description: as §1

Penicillium funiculosum = test: Agar dilution MIC (Example 3); details: Talaromyces funiculosus, 168 h, agar plate, 27 °C, 7 days
Description: as §1

Saccharomyces cerevisiae = test: Agar dilution MIC (Example 3); details: 168 h, agar plate, 27 °C, 7 days
Description: as §1

Rhodotorula rubra = test: Agar dilution MIC (Example 3); details: 168 h, agar plate, 27 °C, 7 days
Description: as §1

[4] = system: Corynebacterium aquaticum; test: Agar dilution MIC (Example 3); details: Leifsonia aquatica, agar plate, 37±1 °C, 18 to 20 hours
Description: as §1

[5] = system: freshwater green alga (Scenedesmus pannonicus); test: Inhibition of propagation of freshwater algae (Example 6); details: Desmodesmus pannonicus, 500ppb
Description: (§2) A predetermined amount each of the compounds of the invention was dissolved in a culture medium containing 10^5 /ml of a freshwater alga at a logarithmic growth phase to prepare samples having a concentration of the compound of the invention in the medium of 500 ppb and 50 ppb respectively. A shaking culture at 100 rpm was performed for […] under continuous illumination at 20±2 °C for freshwater diatom and at 23±2 °C for other algae.
(§3) After 72 hours and 168 hours, the […] of cells was measured using a hemacytometer to obtain propagation rate. The propagation inhibiting rate was calculated from comparison with the non-treated lot. Symbols in the tables mean the followings; • A: freshwater green alga (Chlorella pyrenoidosa), • B: freshwater blue-green alga (Microcystis aeruginosa), • C: freshwater diatom (Diatoma elongatum), • D: freshwater green alga (Scenedesmus pannonicus).

[6] = system: Trichophyton mentagrophytes; details: 72 h, 100 ppm
Description: 31.3 ml of Trichophyton mentagrophytes to be tested was added to 125 ml of a potato dextrose agar culture medium (Nissui Seiyaku Co.). The medium was stirred not to foam the solutions, poured into plates uniformly and solidified.
Thereafter, predetermined amounts of the compounds of the invention were weighted and diluted with acetone to predetermined concentrations.
Paper disks were impregnated with samples containing predetermined amounts of the compounds of the invention, laid on a filter, dried with air and placed on a plate containing test microbe at equal intervals.
Trichophyton mentagrophytes was cultured at 28 °C for 3 days in a thermostatic chamber and the diameter of each inhibiting zone was measured to evaluate the activity of each compound. Symbols in the table mean the followings; • A: Trichophyton mentagrophytes, • ++: strongly inhibiting zone (equal to or more than 21 mm) is observed, • +: inhibiting zone (10 to 20 mm) is observed, • -: no inhibiting zone is observed.

[7] = system: Trichophyton mentagrophytes; test: Agar dilution MIC (Example 2); details: 168 h, agar plate, 27 °C, 7 days
Description: Series of diluted samples (20000, 10000, 5000, 2500, 2000, 1250, 625, 313, 156, 78, 39, 20, 10, 5, 2.5, 1.25 mg/l) of the compounds of the invention were prepared using dimethylsulfoxide. A sensitive culture medium-N (Nissui Seiyaku Co.) was used for bacteria and a potato dextrose agar culture medium (Nissui Seiyaku Co.) was used for fungi. 0.5 ml of each sample was added to and mixed with 9.5 ml of the culture medium, poured into a Petri dish and solidified to obtain a plate. As a result, the concentration of the compounds of the invention in the agar culture medium were 1000, 500, 250, 125, 100, 62.5, 31.3, 15.6, 7.8, 3.9, 2.0, 1.0, 0.5, 0.25, 0.125, 0.062 mg/l. The bacterium inoculated were cultured in a bouillon for the assay of sensitivity (Nissui Seiyaku Co.) at 37 °C for 20 hours, and the fungi were cultured in the potato dextrose agar culture medium (Nissui Seiyaku Co.) for 10 days and then a 10^6 CFU/ml suspension was prepared from each of them. A test bacteria or fungi suspension was streaked on an agar plate containing the compound of the present invention with platinum wire loop, and the agar plate was cultured at 37±1 °C for 18 to 20 hours for bacteria or at 27 °C for 7 days for fungi. A concentration at which no growth was seen was taken as minimum inhibitory concentration [MIC(mg/l)]. Symbols in the table mean the followings; • A: Bacillus subtilis, • B: Trichophyton mentagrophytes, • C: Rhodotorula mucilaginosa.

[8] = system: freshwater green alga (Chlorella pyrenoidosa); test: Inhibition of propagation of freshwater algae (Example 6); details: Auxenochlorella pyrenoidosa, 500ppb
Description: as §2, §3

[9] = system: freshwater blue-green alga (Microcystis aeruginosa); test: as above; details: 500ppb
Description: as §2, §3

[10] = system: freshwater diatom (Diatoma elongatum); test: as above; details: Diatoma tenuis; for inhibition at 0.05 ppm: 50ppb; for inhibition at 0.5 ppm: 500ppb
Description: as §2, §3

[11] = 72hr, read-out: Propagation inhibiting rate (%) 500ppb 72hr
[12] = 168hr, read-out: Propagation inhibiting rate (%) 500ppb 168hr
[13] = 168hr, read-out: Propagation inhibiting rate(%) 500ppb 168hr
[14] = 72hr, read-out: Propagation inhibiting rate(%) 500ppb 72hr

MIC [2] [µg/mL]	MIC (Chaetomium globosum) [µg/mL]	MIC (Saccharomyces cerevisiae) [µg/mL]	MIC [4] [µg/mL]	MIC [7] [µg/mL]	SMILES	inhibition at 0.05 ppm [1] [%]	inhibition at 0.5 ppm [1] [%]	inhibition at 0.5 ppm [5, 12] [%]	Judgment (Target bacteria: A) [6]	also measured
125 (≈ 423 µM)	31.3 (≈ 106 µM)	63 (≈ 213 µM)	31.3 (≈ 106 µM)	–	Cc1cc(C)cc(CN(C)Cc2ccc(C(C)(C)C)cc2)c1 [Compound 2]	84	96	99	++ (strongly inhibiting zone (equal to or more than 21 mm) is observed)	MIC (Fusarium moniliforme): 63 µg/mL (≈ 213 µM); MIC [3]: < 2 µg/mL; MIC (Aspergillus niger): 125 µg/mL (≈ 423 µM); MIC (Penicillium funiculosum): 31.3 µg/mL (≈ 106 µM); MIC (Rhodotorula rubra): 125 µg/mL (≈ 423 µM); inhibition at 0.5 ppm [5, 11]: 91%
125 (≈ 407 µM)	–	31.3 (≈ 102 µM)	15.6 (≈ 50.7 µM)	< 0.062	CN(Cc1ccc(C(C)(C)C)cc1)C1CCCc2ccccc21 (stereo not drawn) [Compound 6]	–	70	–	++ (strongly inhibiting zone (equal to or more than 21 mm) is observed)	inhibition at 0.5 ppm [8, 13]: 79%
–	125 (≈ 373 µM)	125 (≈ 373 µM)	–	< 1	CN(Cc1ccc(C(C)(C)C)cc1)Cc1cccc(C(F)(F)F)c1 [Compound 12]	–	90	–	–	–
–	–	–	63 (≈ 212 µM)	< 1	COc1cccc(CN(C)Cc2ccc(C(C)(C)C)cc2)c1 [Compound 13]	–	92	–	–	–

The remaining lines, values behind:

SMILES	MIC [2] [µg/mL]	MIC (Chaetomium globosum) [µg/mL]	MIC (Saccharomyces cerevisiae) [µg/mL]	MIC [4] [µg/mL]	MIC [7] [µg/mL]	inhibition at 0.05 ppm [1] [%]	inhibition at 0.5 ppm [1] [%]	inhibition at 0.5 ppm [5, 12] [%]	Judgment (Target bacteria: A) [6]	also measured
CC(c1ccccc1Cl)N(C)Cc1ccc(C(C)(C)C)cc1 (stereo not drawn) [Compound 9]	–	–	–	–	0.5 (≈ 1.58 µM)	59	94	85	++ (strongly inhibiting zone (equal to or more than 21 mm) is observed)	inhibition at 0.5 ppm [8, 14]: 70%; inhibition at 0.5 ppm [9, 14]: 97%; inhibition at 0.5 ppm [9, 13]: 98%; inhibition at 0.05 ppm ([10]; 72hr, read-out: Propagation inhibiting rate(%) 50ppb 72hr): 88%; inhibition at 0.05 ppm ([10]; 168hr, read-out: Propagation inhibiting rate(%) 50ppb 168hr): 94%; inhibition at 0.5 ppm [10, 14]: 76%; inhibition at 0.5 ppm [10, 13]: 100%
Cc1cccc(CN(C)Cc2ccc(C(C)(C)C)cc2)c1 [Compound 11]	–	63 (≈ 224 µM)	–	63 (≈ 224 µM)	< 1	70	93	–	–	–
Clc1ccc(CNCc2c(Cl)cccc2Cl)cc1Cl [Compound 15]	–	–	–	–	3.9 (≈ 11.6 µM)	–	94	98	–	inhibition at 0.5 ppm [9, 14]: 92%; inhibition at 0.5 ppm [9, 13]: 100%; inhibition at 0.5 ppm [5, 11]: 95%
Cc1ccc(CN(C)Cc2ccc(C(C)(C)C)cc2)cc1C [Compound 23]	125 (≈ 423 µM)	125 (≈ 423 µM)	125 (≈ 423 µM)	31.3 (≈ 106 µM)	2 (≈ 6.77 µM)	65	97	–	–	MIC (Fusarium moniliforme): 125 µg/mL (≈ 423 µM); MIC (Penicillium funiculosum): 63 µg/mL (≈ 213 µM)
